From ChEMBL document CHEMBL5647694, “Novel orally bioavailable EZH1/2 dual inhibitors with greater antitumor efficacy than an EZH2 selective inhibitor” (Cancer Sci, 2017)

Legend:
[1] = biological target: Ephrin type-A receptor 7 (Homo sapiens) (UniProt Q15375); experiment: Inhibition of N-terminal GST-fused human EPHA7 cytoplasmic domain (595 to 998 residues) expressed in baculovirus-infected Sf21 cells using Blk/Lyntide as substrate at 1 uM in presence of ATP by Mobility shift assay
[2] = biological target: Focal adhesion kinase 1 (Homo sapiens) (UniProt Q05397); experiment: Inhibition of N-terminal GST-fused truncated human FAK (376 to 1052 residues) expressed in baculovirus-infected Sf21 cells using Blk/Lyntide as substrate at 1 uM in presence of ATP by Mobility shift assay
[3] = biological target: Fibroblast growth factor receptor 4 (Homo sapiens) (UniProt P22455); experiment: Inhibition of N-terminal GST-fused human FGFR4 cytoplasmic domain (460 to 802 residues) expressed in baculovirus-infected Sf21 cells using CSKtide as substrate at 1 uM in presence of ATP by Mobility shift assay
[4] = biological target: Receptor-type tyrosine-protein kinase FLT3 (Homo sapiens) (UniProt P36888); experiment: Inhibition of N-terminal GST-fused human FLT3 cytoplasmic domain (564 to 993 residues) expressed in baculovirus-infected Sf21 cells using Srctide as substrate at 1 uM in presence of ATP by Mobility shift assay
[5] = biological target: Proto-oncogene tyrosine-protein kinase receptor Ret (Homo sapiens) (UniProt P07949); experiment: Inhibition of N-terminal GST-tagged human RET cytoplasmic domain (658 to 1114 residues) expressed in baculovirus-infected Sf21 cells using CSKtide as substrate at 1 uM in presence of ATP by Mobility shift assay
[6] = biological target: RAC-alpha serine/threonine-protein kinase (Homo sapiens) (UniProt P31749); experiment: Inhibition of N-terminal GST-tagged human AKT1 catalytic domain (104 to 480 residues) co-expressed with His-tagged PDK1 (1 to 556 residues) in baculovirus-infected Sf21 cells using Crosstide as substrate at 1 uM in presence of ATP by Mobility shift assay
[7] = biological target: Calcium/calmodulin-dependent protein kinase type 1D (Homo sapiens) (UniProt Q8IU85); experiment: Inhibition of N-terminal GST-tagged full length human CAMK1d (1 to 357 residues) expressed in baculovirus-infected Sf21 cells using Synapsin peptide as substrate at 1 uM in presence of ATP by Mobility shift assay
[8] = biological target: Calcium/calmodulin-dependent protein kinase type II subunit beta (Homo sapiens) (UniProt Q13554); experiment: Inhibition of N-terminal GST-tagged full length human CAMK2b (1 to 503 residues) expressed in baculovirus-infected Sf21 cells using GS peptide as substrate at 1 uM in presence of ATP by Mobility shift assay
[9] = biological target: CDK3/Cyclin E (Homo sapiens) (UniProt P24864+Q00526); experiment: Inhibition of N-terminal GST-tagged full length human CDK3 (1 to 305 residues)/N-terminal GST-tagged human CyclinE1 (1 to 410 residues) expressed in baculovirus-infected Sf21 cells using Modified Histone H1 as substrate at 1 uM in presence of ATP by Mobility shift assay
[10] = biological target: Casein kinase II alpha/beta (Homo sapiens) (UniProt P67870+P68400); experiment: Inhibition of N-terminal GST-fused full length human CK2alpha1 (1 to 391 residues)/His-tagged human CK2beta (1 to 215 residues) expressed in baculovirus expression system using CK2tide as substrate at 1 uM in presence of ATP by Mobility shift assay
[11] = biological target: Dual specificity tyrosine-phosphorylation-regulated kinase 1A (Homo sapiens) (UniProt Q13627); experiment: Inhibition of N-terminal GST-fused full length human DYRK1A (1 to 763 residues) expressed in baculovirus expression system using DYRKtide-F as substrate at 1 uM in presence of ATP by Mobility shift assay
[12] = biological target: Homeodomain-interacting protein kinase 2 (Homo sapiens) (UniProt Q9H2X6); experiment: Inhibition of N-terminal GST-fused full length human HIPK2 (1 to 1198 residues) expressed in baculovirus expression system using DYRKtide-F as substrate at 1 uM in presence of ATP by Mobility shift assay
[13] = biological target: Homeodomain-interacting protein kinase 4 (Homo sapiens) (UniProt Q8NE63); experiment: Inhibition of N-terminal GST-fused full length human HIPK4 (1 to 616 residues) expressed in baculovirus expression system using DYRKtide-F as substrate at 1 uM in presence of ATP by Mobility shift assay
[14] = biological target: Mitogen-activated protein kinase 9 (Homo sapiens) (UniProt P45984); experiment: Inhibition of N-terminal GST-fused human JNK2 catalytic domain (1 to 364 residues) expressed in Escherichia coli expression system using Modified ERKtide as substrate at 1 uM in presence of ATP by Mobility shift assay
[15] = biological target: Serine/threonine-protein kinase Nek4 (Homo sapiens) (UniProt P51957); experiment: Inhibition of N-terminal GST-tagged full length human NEK4 (1 to 841 residues) expressed in baculovirus expression system using GS peptide as substrate at 1 uM in presence of ATP by Mobility shift assay
[16] = biological target: Serine/threonine-protein kinase PAK 1 (Homo sapiens) (UniProt Q13153); experiment: Inhibition of N-terminal GST-fused full length human PAK1 (1 to 545 residues) expressed in baculovirus expression system using LIMKtide as substrate at 1 uM in presence of ATP by Mobility shift assay
[17] = biological target: Serine/threonine-protein kinase PAK 5 (Homo sapiens) (UniProt Q9P286); experiment: Inhibition of N-terminal GST-fused human PAK5 catalytic domain (425 to 719 residues) expressed in baculovirus expression system using DAPK1tide as substrate at 1 uM in presence of ATP by Mobility shift assay
[18] = biological target: PAS domain-containing serine/threonine-protein kinase (Homo sapiens) (UniProt Q96RG2); experiment: Inhibition of N-terminal GST-fused human PASK catalytic domain (949 to 1323 residues) expressed in baculovirus expressing system using GS peptide as substrate at 1 uM in presence of ATP by Mobility shift assay
[19] = biological target: Serine/threonine-protein kinase pim-2 (Homo sapiens) (UniProt Q9P1W9); experiment: Inhibition of N-terminal GST-tagged full length human PIM2 (1 to 311 residues) expressed in baculovirus expression system using S6K2 peptide as substrate at 1 uM in presence of ATP by Mobility shift assay
[20] = biological target: Testis-specific serine/threonine-protein kinase 2 (Homo sapiens) (UniProt Q96PF2); experiment: Inhibition of N-terminal GST-fused full length human TSSK2 (1 to 358 residues) expressed in baculovirus expression system using GS peptide as substrate at 1 uM in presence of ATP by Mobility shift assay
[21] = biological target: Serine/threonine-protein kinase WNK3 (Homo sapiens) (UniProt Q9BYP7); experiment: Inhibition of N-terminal GST-fused human WNK3 catalytic domain (1 to 434 residues) expressed in baculovirus expression system using SPAKtide as substrate at 1 uM in presence of ATP by Mobility shift assay
Homo sapiens = species on record: Homo sapiens; experiment: Competitive inhibition of PRC2-EZH2 (unknown origin) assessed as intensity of SAM signal using SAM as substrate at 800 uM by STD-NMR analysis (reference value: 100%); parameters: scale not given: the % may be the effect or the level left

Chain of Fibroblast growth factor receptor 4 (Homo sapiens) (P22455 22-802 limits assumed): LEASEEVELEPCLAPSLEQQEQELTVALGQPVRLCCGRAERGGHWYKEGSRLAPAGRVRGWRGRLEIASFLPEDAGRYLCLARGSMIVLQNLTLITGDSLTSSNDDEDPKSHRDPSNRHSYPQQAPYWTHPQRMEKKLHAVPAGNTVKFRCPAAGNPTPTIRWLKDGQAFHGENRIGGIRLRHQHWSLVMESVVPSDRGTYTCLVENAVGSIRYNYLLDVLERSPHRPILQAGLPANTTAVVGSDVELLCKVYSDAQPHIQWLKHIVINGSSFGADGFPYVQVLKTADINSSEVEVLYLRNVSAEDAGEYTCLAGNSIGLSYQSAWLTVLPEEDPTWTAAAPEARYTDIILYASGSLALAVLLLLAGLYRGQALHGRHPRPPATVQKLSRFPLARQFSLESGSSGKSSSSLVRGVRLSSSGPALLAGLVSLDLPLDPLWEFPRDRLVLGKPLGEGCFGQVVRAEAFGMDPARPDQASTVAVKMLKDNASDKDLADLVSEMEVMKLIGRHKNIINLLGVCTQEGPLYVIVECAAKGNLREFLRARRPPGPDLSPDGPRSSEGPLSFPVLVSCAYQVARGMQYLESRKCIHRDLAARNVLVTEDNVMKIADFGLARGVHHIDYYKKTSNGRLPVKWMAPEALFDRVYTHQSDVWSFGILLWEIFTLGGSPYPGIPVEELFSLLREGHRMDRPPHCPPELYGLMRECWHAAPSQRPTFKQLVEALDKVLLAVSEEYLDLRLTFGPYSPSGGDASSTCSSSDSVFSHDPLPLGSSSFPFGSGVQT
Chain of Serine/threonine-protein kinase pim-2 (Homo sapiens) (Q9P1W9 whole entry, looked up, the tested form may be a part): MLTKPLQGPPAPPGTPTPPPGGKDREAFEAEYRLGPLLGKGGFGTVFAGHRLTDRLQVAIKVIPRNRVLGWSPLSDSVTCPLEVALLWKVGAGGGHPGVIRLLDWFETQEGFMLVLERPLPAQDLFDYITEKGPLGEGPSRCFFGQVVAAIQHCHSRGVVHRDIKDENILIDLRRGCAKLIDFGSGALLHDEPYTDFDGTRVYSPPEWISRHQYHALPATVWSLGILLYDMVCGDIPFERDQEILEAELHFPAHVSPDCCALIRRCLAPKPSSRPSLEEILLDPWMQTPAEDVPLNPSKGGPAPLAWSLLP
Chain of Homeodomain-interacting protein kinase 2 (Homo sapiens) (Q9H2X6 whole entry, looked up, the tested form may be a part): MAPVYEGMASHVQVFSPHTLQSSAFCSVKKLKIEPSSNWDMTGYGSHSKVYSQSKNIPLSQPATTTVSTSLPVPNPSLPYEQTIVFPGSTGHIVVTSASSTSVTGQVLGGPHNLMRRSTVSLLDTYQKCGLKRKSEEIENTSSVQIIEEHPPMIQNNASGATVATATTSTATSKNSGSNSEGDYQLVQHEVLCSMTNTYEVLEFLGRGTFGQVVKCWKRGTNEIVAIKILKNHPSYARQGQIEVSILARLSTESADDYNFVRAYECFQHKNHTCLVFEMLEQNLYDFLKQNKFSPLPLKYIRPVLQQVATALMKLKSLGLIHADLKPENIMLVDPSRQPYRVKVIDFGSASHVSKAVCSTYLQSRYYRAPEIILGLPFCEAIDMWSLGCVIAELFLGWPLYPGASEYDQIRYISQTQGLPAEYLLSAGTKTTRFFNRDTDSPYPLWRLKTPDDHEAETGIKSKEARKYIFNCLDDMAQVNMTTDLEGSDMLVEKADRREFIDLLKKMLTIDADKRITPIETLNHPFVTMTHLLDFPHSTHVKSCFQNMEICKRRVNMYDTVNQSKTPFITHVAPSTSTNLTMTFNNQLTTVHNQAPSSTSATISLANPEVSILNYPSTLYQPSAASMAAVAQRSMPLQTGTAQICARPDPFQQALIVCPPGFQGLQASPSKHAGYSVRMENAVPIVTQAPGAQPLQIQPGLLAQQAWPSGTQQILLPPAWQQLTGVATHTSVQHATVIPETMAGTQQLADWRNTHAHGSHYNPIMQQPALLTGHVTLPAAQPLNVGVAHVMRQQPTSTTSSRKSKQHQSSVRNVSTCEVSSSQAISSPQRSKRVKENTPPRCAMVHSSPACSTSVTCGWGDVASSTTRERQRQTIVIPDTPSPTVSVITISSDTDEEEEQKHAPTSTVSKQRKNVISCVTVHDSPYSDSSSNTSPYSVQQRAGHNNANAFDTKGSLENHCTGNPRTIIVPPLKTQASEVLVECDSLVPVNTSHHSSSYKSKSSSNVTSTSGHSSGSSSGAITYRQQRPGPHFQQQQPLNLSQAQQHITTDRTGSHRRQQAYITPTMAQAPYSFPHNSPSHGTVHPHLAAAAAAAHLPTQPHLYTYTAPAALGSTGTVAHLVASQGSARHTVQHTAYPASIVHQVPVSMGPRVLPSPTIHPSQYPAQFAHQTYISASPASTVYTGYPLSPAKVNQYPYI
Chain of Proto-oncogene tyrosine-protein kinase receptor Ret (Homo sapiens) (P07949 whole entry, the tested form may be a part): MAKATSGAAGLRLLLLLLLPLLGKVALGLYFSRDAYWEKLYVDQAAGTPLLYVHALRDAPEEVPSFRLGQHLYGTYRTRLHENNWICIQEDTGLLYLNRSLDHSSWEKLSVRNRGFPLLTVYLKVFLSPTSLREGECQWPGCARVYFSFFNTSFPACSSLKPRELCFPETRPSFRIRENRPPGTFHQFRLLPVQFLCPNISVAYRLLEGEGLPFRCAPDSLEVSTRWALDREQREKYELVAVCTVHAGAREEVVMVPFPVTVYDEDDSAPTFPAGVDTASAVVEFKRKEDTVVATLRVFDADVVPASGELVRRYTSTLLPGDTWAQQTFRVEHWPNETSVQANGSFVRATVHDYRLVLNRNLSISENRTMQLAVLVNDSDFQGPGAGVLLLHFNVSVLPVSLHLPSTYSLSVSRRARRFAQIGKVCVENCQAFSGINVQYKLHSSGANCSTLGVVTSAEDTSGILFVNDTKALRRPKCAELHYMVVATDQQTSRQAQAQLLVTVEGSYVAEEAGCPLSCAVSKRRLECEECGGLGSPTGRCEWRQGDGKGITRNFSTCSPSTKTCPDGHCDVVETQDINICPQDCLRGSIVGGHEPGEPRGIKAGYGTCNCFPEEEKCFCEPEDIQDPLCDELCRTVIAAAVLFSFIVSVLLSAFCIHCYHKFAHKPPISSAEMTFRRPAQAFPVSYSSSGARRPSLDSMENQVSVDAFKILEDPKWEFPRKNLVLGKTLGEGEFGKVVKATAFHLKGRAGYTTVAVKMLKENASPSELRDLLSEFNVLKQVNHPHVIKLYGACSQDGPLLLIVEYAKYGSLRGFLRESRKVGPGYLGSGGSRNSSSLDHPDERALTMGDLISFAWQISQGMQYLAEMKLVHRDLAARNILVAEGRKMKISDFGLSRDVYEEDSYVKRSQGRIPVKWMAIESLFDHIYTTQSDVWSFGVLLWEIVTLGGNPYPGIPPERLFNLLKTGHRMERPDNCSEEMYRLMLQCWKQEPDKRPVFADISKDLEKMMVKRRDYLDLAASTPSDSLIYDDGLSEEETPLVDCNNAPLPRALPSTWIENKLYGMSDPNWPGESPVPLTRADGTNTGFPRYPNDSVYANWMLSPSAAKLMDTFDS
Chain of Serine/threonine-protein kinase Nek4 (Homo sapiens) (P51957 whole entry, looked up, the tested form may be a part): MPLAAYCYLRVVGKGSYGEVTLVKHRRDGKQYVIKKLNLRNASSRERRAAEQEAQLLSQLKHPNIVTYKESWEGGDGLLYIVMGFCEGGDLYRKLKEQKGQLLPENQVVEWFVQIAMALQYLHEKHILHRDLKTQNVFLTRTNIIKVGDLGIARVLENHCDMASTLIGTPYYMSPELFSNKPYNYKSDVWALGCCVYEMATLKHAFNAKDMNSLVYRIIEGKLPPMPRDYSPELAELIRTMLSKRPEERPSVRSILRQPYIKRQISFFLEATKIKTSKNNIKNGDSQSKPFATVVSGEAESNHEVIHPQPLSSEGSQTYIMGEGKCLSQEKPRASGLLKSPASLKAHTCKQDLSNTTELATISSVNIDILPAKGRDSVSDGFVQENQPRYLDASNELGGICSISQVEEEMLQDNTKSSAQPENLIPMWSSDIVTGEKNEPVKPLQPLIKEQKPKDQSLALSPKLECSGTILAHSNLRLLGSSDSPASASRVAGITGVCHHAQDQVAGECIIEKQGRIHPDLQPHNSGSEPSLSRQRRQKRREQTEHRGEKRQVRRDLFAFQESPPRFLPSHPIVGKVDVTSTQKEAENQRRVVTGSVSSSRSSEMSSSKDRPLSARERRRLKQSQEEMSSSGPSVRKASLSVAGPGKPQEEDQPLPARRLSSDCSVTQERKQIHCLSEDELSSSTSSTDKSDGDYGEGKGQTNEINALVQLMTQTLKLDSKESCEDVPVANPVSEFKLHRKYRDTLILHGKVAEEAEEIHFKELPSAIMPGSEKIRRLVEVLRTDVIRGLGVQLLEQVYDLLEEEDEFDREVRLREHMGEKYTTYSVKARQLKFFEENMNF
Chain of Calcium/calmodulin-dependent protein kinase type 1D (Homo sapiens) (Q8IU85 whole entry, looked up, the tested form may be a part): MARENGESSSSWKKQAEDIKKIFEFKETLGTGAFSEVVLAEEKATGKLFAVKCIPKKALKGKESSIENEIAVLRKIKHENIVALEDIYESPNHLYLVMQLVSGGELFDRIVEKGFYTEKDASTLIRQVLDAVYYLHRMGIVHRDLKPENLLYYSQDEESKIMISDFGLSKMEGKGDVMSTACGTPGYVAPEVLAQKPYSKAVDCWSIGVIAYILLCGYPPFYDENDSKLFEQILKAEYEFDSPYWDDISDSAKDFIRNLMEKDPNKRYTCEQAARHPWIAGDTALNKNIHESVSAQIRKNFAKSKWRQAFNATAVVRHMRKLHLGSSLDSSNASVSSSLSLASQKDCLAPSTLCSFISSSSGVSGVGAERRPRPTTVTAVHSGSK
Chain of Mitogen-activated protein kinase 9 (Homo sapiens) (P45984 whole entry, looked up, the tested form may be a part): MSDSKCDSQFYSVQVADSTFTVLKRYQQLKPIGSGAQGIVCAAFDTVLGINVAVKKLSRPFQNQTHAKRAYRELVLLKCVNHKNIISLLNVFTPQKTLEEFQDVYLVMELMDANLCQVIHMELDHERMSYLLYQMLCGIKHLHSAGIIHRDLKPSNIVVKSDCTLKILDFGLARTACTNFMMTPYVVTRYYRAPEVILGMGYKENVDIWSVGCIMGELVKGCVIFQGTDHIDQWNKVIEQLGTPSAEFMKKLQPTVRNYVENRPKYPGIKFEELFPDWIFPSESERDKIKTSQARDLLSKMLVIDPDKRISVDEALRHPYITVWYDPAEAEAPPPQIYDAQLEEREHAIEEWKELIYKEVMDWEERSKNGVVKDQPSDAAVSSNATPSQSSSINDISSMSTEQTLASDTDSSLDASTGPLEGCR

Structure (SMILES)	inhibition [1] [%]	inhibition [2] [%]	inhibition [3] [%]	inhibition [4] [%]	inhibition [5] [%]	inhibition [6] [%]	inhibition [7] [%]	inhibition [8] [%]	inhibition [9] [%]	inhibition [10] [%]	inhibition [11] [%]	inhibition [12] [%]	inhibition [13] [%]	inhibition [14] [%]	inhibition [15] [%]	inhibition [16] [%]	inhibition [17] [%]	inhibition [18] [%]	inhibition [19] [%]	inhibition [20] [%]	also measured
Cc1cc(C)c(CNC(=O)c2cc(Cl)c3c(c2C)O[C@@](C)([C@H]2CC[C@H](N(C)C)CC2)O3)c(=O)[nH]1 [VALEMETOSTAT]	-1.9	-2.3	-5.6	-1.5	-5.7	-2.9	-3.5	-1.4	-0.2	-4	-3.4	3.1	-3	-5	-2.9	2.6	-3.9	-5.8	-1.4	-3.3	inhibition [21]: -3.9%; Activity (Homo sapiens): 62%
Cc1cc(C)c(CNC(=O)c2cc(Br)c3c(c2C)O[C@@](C)([C@H]2CC[C@H](N(C)C)CC2)O3)c(=O)[nH]1	-3.3	-1.5	-3.7	-2.6	-2.3	-2.9	-3.6	-0.3	-1	-5.8	-8.2	-1.4	3	-4	-2	2.3	-4.3	-3.7	-3.9	-2.5	inhibition [21]: -9.2%; Activity (Homo sapiens): 59%
